Data on 12 molecules can be found in ChEMBL document CHEMBL2396561 (J Med Chem, 2013).

The structures appear in SMILES notation. ≈ marks a conversion by molar mass, not a printed value.

In series [1] the test system is Staphylococcus aureus. Description: Antibacterial activity against Staphylococcus aureus ATCC 29213 expressing FabI assessed as growth inhibition after 18 to 24 hrs by microdilution method. In kind it is functional. In general terms: Dilution methods test growth across graded concentrations, often in twofold steps.
In series [2] the test system is Francisella tularensis subsp. tularensis SCHU S4. Description: Antibacterial activity against Francisella tularensis SCHU S4 expressing FabI assessed as growth inhibition after 42 to 48 hrs by microdilution method. In kind it is functional.
The subject of series [3] is Escherichia coli. Description: Antibacterial activity against Escherichia coli ATCC 25922 expressing FabI assessed as growth inhibition after 18 to 24 hrs by microdilution method. It is filed as functional.
The subject of series [4] is Bacillus anthracis. Description: Antibacterial activity against Bacillus anthracis Ames expressing FabI assessed as growth inhibition after 18 to 24 hrs by microdilution method. In kind it is functional.
For series [5], the system named is Pseudomonas aeruginosa. Description: Antibacterial activity against Pseudomonas aeruginosa ATCC 27853 expressing FabI, FabV, FabK assessed as growth inhibition after 18 to 24 hrs by microdilution method. In kind it is functional.
A short description of series [6]: Cytotoxicity against human 786-O cells assessed as cell survival after 72 hrs by CellTiter-96 aqueous one solution assay. In kind it is cell-based, 786-0. The note with it: read-out: LC50.
Series [7] has as its target T1, Enoyl-[acyl-carrier-protein] reductase [NADH] (Francisella tularensis subsp. tularensis (strain SCHU S4 / Schu 4), UniProt Q5NGQ3).
T1 sequence (Q5NGQ3 whole entry): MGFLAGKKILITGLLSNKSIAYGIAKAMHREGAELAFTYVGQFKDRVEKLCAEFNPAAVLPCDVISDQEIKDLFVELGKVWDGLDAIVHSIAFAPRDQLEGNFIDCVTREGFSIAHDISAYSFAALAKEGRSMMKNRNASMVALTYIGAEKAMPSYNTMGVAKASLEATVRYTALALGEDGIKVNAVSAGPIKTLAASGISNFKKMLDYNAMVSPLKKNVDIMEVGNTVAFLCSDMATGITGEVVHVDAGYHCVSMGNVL

For series [8], the target named is T1, Enoyl-[acyl-carrier-protein] reductase [NADH]. This is another data set of the same source.
Series [9] can be described thus: Cytotoxicity against mouse Neuro2a cells assessed as cell survival after 72 hrs by CellTiter-96 aqueous one solution assay. In kind it is cell-based, N2a. The note with it: read-out: LC50.
Series [10] concerns the target T1, Enoyl-[acyl-carrier-protein] reductase [NADH]. This is another data set of the same source.
A short description of series [11]: Solubility of the compound in DMSO at 125 uM. It is filed as physicochemical.

The MIC is the lowest concentration found to suppress growth. A word on the Ki: it is a measure of affinity in units of concentration, obtained from inhibition or displacement. The low end stands for a stronger hold on the target, the high end for a looser hold on the target. The IC50 is the midpoint of a concentration-inhibition curve. A higher IC50 goes with weaker potency in that assay.

For the molecule `O=C(CC1CCCCC1)N1CCC(c2nc(-c3ccc(S(=O)(=O)N4CCCC4)cc3)no2)CC1`, the minimal inhibitory concentration (MIC) in series [1] was over 52 µg/mL; in series [2], over 52 µg/mL; in series [3] it was over 52 µg/mL; in [4], over 26 µg/mL; in series [5], over 52 µg/mL. Moreover, the CC50 at 72 h in [6] was found to be 7 µM; in series [9], 8 µM. Further, the affinity in series [7] corresponds to a Ki of 7 µM. Also, inhibition in series [8] was half-maximal at 8 µM (IC50).

`O=C(C(=O)N1CC=C(c2ccccc2)CC1)c1c[nH]c2ccccc12`: the MIC was over 413 µg/mL in [1]; 39 µM in series [2]; over 413 µg/mL in series [3]; over 208 µg/mL in series [4]; over 413 µg/mL in series [5]. Further, the CC50 at 72 h in series [6] came to 63 µM; in series [9] it was 70 µM. In addition, the IC50 is 12 µM in [10] and 3 µM in [8].

`O=C(COc1ccccc1)NCCSc1c[nH]c2ccccc12`: the MIC in [1] was 86 µg/mL (≈ 263 µM); in series [2], 67 µM; in [3], over 343 µg/mL; in series [4] it was 43 µg/mL (≈ 132 µM); in series [5] it was over 343 µg/mL. The CC50 at 72 h in [6] and in series [9] was 30 µM each time. For the same molecule, in series [11], the solubility result is listed as “soluble”. The molecule also gave a Ki in series [7] of 3.4 µM. In [8], this molecule displayed a half-inhibitory concentration (IC50) of 20 µM.

In the case of `CN(Cc1ccccc1N)C(=O)c1cc2ccccc2o1`, the half-maximal inhibitory concentration (IC50) in series [10] was determined as 45 µM.

In series [10], `N#Cc1ccc(Oc2ccccc2O)c(F)c1` yielded an IC50 of 11 µM.

Regarding `NC(=O)c1ccc(Oc2ccccc2O)c(F)c1`, 6 µM corresponded to half-maximal inhibition in series [10] (IC50).

`CN(Cc1ccc(C(C)(C)C)cc1)Cc1cccc2ccccc12` [BUTENAFINE] displayed an IC50 in series [10] of 76 µM.

Consider `O=C(O)c1cn(C2CC2)c2cc(N3CCNCC3)c(F)cc2c1=O` [CIPROFLOXACIN], for which the MIC in [1] was 2 µg/mL (≈ 6.04 µM); in series [2], 0.125 µg/mL; in series [3], 0.0312 µg/mL (≈ 0.0943 µM); in series [4], 0.0312 µg/mL (≈ 0.0943 µM); in [5], 1 µg/mL (≈ 3.02 µM).

In the case of `Nc1ccn([C@@H]2O[C@H](CO)[C@@H](O)[C@@H]2O)c(=O)n1` [CYTARABINE], in series [10], it took 59 µM to reach half-maximal inhibition (IC50).

Molecule `O=c1oc2ccccc2c(O)c1Cc1c(O)c2ccccc2oc1=O` [DICUMAROL] registered an IC50 in series [10] of 47 µM.

In turn, `CCc1ccc(CCOc2ccc(CC3SC(=O)NC3=O)cc2)nc1` (stereo not drawn) [PIOGLITAZONE] gave a half-maximal inhibitory concentration (IC50) in [10] of 79 µM.

Regarding `Oc1cc(Cl)ccc1Oc1ccc(Cl)cc1Cl` [TRICLOSAN], the figures for the CC50 at 72 h in series [6] and in series [9] were 4.2 µM and 5.4 µM, respectively. In series [8], this molecule displayed an IC50 of 1.3 µM.
